The target in test [1] is T1, human TLR7 (Homo sapiens, UniProt Q9NYK1).
T1 construct: expressed in transfected cells; host or cells: HEK293 cells, transient transfection with CMV-TLR7 plasmid and NFκB-luc plasmid
T1 sequence (Q9NYK1 27-1049): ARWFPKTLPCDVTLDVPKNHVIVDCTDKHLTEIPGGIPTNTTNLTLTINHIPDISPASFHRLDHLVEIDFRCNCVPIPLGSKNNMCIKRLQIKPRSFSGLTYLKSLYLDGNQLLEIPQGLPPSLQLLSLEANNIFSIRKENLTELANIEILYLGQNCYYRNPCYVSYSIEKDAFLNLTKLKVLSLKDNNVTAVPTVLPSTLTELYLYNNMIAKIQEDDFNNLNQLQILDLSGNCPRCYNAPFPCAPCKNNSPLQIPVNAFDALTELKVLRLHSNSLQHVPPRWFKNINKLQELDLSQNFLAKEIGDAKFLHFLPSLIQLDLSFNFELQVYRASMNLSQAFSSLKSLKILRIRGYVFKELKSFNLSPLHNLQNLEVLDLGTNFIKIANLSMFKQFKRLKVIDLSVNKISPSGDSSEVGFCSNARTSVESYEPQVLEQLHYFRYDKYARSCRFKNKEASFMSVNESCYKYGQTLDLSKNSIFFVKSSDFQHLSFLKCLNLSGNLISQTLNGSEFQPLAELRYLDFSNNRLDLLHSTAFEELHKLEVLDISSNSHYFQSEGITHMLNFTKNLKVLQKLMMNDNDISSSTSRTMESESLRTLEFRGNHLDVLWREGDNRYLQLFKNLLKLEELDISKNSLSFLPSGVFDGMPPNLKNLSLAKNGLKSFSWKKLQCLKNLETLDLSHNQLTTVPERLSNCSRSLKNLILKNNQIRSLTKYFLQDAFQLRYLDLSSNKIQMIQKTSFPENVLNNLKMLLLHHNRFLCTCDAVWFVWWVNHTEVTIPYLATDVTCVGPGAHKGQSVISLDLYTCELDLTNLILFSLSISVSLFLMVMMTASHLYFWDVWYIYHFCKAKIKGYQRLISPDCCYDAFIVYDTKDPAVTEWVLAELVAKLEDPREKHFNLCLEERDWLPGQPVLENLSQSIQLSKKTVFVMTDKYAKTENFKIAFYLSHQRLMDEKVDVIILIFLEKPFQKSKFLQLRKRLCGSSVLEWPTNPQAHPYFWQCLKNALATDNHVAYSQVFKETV
Description: TLR7 cellular reporter assay (HEK293, NFκB-luc). In kind it is cell-based. Conditions: HEK293 cells transfected with CMV-TLR7 and NFκB-luc, 6 hours incubation; lowest effective concentration. Summed up: (§1)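 HEK293 cells transiently transfected with receptor expression vector plus NFκB-luciferase reporter, exposed to compound (added in 4% DMSO) for 6 hours at 37° C, 5% CO2. Luciferase activity measured by luminescence; dose-response curves from quadruplicate measurements.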

In test [2] the target is T2, human TLR8 (Homo sapiens, UniProt Q9NR97).
T2 construct: expressed in transfected cells; host or cells: HEK293 cells, transient transfection with TLR8 plasmid and NFκB-luc plasmid
T2 sequence (Q9NR97 27-1041): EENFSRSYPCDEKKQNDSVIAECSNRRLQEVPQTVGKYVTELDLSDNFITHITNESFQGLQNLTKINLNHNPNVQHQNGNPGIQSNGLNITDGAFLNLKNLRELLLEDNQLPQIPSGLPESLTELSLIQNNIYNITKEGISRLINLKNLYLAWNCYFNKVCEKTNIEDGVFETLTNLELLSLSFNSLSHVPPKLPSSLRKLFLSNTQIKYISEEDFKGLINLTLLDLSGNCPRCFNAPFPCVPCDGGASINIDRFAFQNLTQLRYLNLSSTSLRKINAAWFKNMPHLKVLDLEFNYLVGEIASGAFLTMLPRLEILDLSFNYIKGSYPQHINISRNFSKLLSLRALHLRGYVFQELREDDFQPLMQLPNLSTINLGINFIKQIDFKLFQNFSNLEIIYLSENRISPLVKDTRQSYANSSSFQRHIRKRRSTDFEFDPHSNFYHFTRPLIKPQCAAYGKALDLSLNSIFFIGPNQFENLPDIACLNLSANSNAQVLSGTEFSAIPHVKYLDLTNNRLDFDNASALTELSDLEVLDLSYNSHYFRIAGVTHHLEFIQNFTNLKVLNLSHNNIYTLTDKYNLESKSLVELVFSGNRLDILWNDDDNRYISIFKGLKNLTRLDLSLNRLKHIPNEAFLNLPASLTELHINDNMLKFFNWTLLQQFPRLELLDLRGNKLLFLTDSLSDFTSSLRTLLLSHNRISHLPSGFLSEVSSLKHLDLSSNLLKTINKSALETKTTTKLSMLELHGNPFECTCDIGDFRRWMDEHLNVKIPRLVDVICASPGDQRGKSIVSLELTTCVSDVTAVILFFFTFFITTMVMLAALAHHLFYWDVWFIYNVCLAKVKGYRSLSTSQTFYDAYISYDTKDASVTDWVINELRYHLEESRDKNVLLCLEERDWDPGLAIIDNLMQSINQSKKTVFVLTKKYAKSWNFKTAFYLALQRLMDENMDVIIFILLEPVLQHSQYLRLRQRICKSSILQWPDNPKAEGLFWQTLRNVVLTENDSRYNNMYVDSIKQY
Description: TLR8 cellular reporter assay (HEK293, NFκB-luc). In kind it is cell-based. Conditions: HEK293 cells transfected with CMV-TLR8 and NFκB-luc, 6 hours incubation; lowest effective concentration. Summed up: as §1

Test [3] has as its system interferon-stimulated responsive elements (ISRE). Kind of test: Activation of ISRE promoter elements by conditioned media from PBMC (HEK-ISREluc). Type of test: cell-based, human. Conditions: Homo sapiens; conditioned media from PBMC transferred to HEK-ISREluc cells, 24 hours; lowest effective concentration; read-out: PBMC LEC. Summed up: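 Human PBMCs (≥2 donors, RPMI + 10% human AB serum, 2×10^5 cells/well) incubated overnight with compound; supernatant transferred to HEK293 cells stably carrying pISRE-Luc for 24 h, then luciferase read. LEC = compound concentration on PBMCs giving luciferase signal at least two-fold above assay SD; recombinant IFN-α-2a standard.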

As for `COc1cc(OC)nc(Cn2ccc3nc(N)nc(NCc4noc(C)n4)c32)n1` [Compound 209], the “TLR7 LEC” value in test [1] was found to be 0.04 µM. Moreover, in test [2], the “TLR8 LEC” value was greater than 25 µM. The minimal effective concentration in test [3] stood at 0.008 µM.

In the case of `COc1cc(OC)nc(Cn2ccc3nc(N)nc(NCc4ncc(C)o4)c32)n1` [Compound 210], in test [1], the “TLR7 LEC” value was 0.02 µM. For the same compound, the “TLR8 LEC” value in test [2] was greater than 25 µM. In test [3], the minimal effective concentration worked out at 0.003 µM.

For the compound `COC[C@H](C)Nc1nc(N)nc2ccn(Cc3ccccn3)c12` [Compound 211], in test [1], the “TLR7 LEC” value worked out at 6.94 µM. The “TLR8 LEC” value in test [2] amounted to 22 µM. In addition, the minimal effective concentration in test [3] was 0.47 µM.

Turning to `COCCn1ccc2nc(N)nc(NC(C)COC)c21` (stereo not drawn) [Compound 212], the “TLR7 LEC” value in test [1] was found to be 7.60 µM. For the same compound, the “TLR8 LEC” value in test [2] was greater than 25 µM. In test [3], the minimal effective concentration came to 2.09 µM.

As to `COc1cccnc1Cn1ccc2nc(N)nc(NCc3ncc(C)o3)c21` [Compound 213], in test [1], the “TLR7 LEC” value was less than 0.01 µM. For the same compound, in test [2], the “TLR8 LEC” value is greater than 25 µM. Further, the minimal effective concentration in test [3] is 0.001 µM.

With `COc1ccccc1Cn1ccc2nc(N)nc(NCc3ncc(C)s3)c21` [Compound 215], the “TLR7 LEC” value in test [1] is less than 0.01 µM. Besides, the “TLR8 LEC” value in test [2] was greater than 25 µM. Moreover, the minimal effective concentration in test [3] amounted to 0.001 µM.

The values above are taken from patent publication US11220504B2, “Pyrrolo[3,2-d] pyrimidine derivatives for the treatment of viral infections and other diseases” (JANSSEN SCIENCES IRELAND UNLIMITED COMPANY, priority 2012, dated 2022).
